# According to US20160362418A1, “CARBOXAMIDE-SUBSTITUTED XANTHENE DYES” (priority 2015, published 2016):
# Assay: Spectral properties of fluorescent dyes (Abs/Em)
# Assay type: physicochemical
# Details: for Abs: absorbance maximum, first number of Abs/Em; for Em: emission maximum, second number of Abs/Em
# Description: The spectral properties of dyes can be tuned by modifying the rhodamine core of dyes.
Abs [nm],Em [nm],Compound
518,539,CC(=O)O.CN(CCS(=O)(=O)O)C(=O)c1ccccc1-c1c2ccc(=N)cc-2oc2cc(N)ccc12 [Compound 1]
601,623,CC(=O)O.CN(CCS(=O)(=O)[O-])C(=O)c1ccccc1C1=c2cc3c(cc2Oc2cc4c(cc21)C(CS(=O)(=O)O)=CC(C)(C)N4C)=[N+](C)C(C)(C)C=C3CS(=O)(=O)O [Compound 6]
